Experimental data reported in US20230310390A1, “INHIBITORS OF SHORT-CHAIN DEHYDROGENASE ACTIVITY FOR TREATING NEURODEGENERATION” (CASE WESTERN RESERVE UNIVERSITY, priority 2020, published 2023).
“Also recorded” adds a separate entry of the source.

Tests used:
Type in all cases: in vivo
eicosanoids = assay: Eicosanoid profiling by LC-MS/MS, right brain hemisphere of wild-type and 5×FAD mice; settings: 5 mk/kg twice daily for 4 weeks
Description: Eicosanoids were measured by methods of liquid chromatography with tandem mass spectrometry with the use of spiked in deuterated internal standards. Eicosanoids measured included: the 6-keto-PGF1 alpha (6-keto-PGF1a, a hydrolysis product of and proxy for prostacyclin), thromboxane B2 (TXB2, a metabolite/product of and proxy for thromboxane A2), PGD2, PGE2, 15-keto-PGE2 (produced by 15-PGDH degradation of PGE2), tetranor PGE1 (TN-E, a metabolic product produced by beta-oxidation of PGE2), PGJ2, PGF2 alpha (PGF2a), LTB4, 15-HETE, 12-HETE, 8-HETE, 5-HETE, 17-HDHA, 12,13-DiHOME, 14,15-DHET, 11,12-DHET.
FIG. 3 illustrates graphs showing comparison of eicosanoid values in brain of 6 month old male mice that are either wild-type or that are the 5×FAD strain of mice that model Alzheimer's disease. Beginning at 5 months of age both genotypes of mice were injected twice daily with either 5 mk/kg (+)-SW033291 or with matched vehicle control as described in Zhang et al. Science. 2015; 348(6240):aaa2340. PMCID: PMC4481126. Treatment continued twice daily for 4 weeks. Mice were sacrificed at 3 hours following their final injection. After sacrifice the right hemisphere of the brain was dissected, flash frozen, and powdered, and eicosanoids were extracted in aqueous buffer for analysis. Protein concentration of the extracts were assayed, and eicosanoid values were recorded as ng eicosanoid per mg protein.

15-PGDH [1] = target: T1, 15-PGDH (Mus musculus, UniProt Q8VCC1); assay: 15-PGDH enzymatic activity in forebrain after TBI; settings: Hpgd+/+ mice, 3 weeks after TBI, 5 mg/kg started 24 hours after injury
T1 construct: brain tissue was dissected 3 weeks later for biochemical determination of 15-PGDH enzymatic activity; from tissue; host or cells: mouse brain (forebrain after TBI; whole brain of 5xFAD and WT littermates)
T1 sequence (Q8VCC1 1-269): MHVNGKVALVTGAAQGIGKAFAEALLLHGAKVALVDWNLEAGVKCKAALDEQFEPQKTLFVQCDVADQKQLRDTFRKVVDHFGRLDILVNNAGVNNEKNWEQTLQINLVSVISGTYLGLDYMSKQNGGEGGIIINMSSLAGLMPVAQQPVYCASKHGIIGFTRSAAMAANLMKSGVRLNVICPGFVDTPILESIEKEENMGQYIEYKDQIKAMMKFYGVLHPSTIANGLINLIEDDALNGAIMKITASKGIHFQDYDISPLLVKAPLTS
Description: (§1) (A) 8 week old 15-PGDH wild-type (Hpgd^+/+) and 15-PGDH knockout (Hpgd^−/−) mice were subjected to TBI, and brain tissue was dissected 2 weeks later for western blot. […] Individual human data points are shown on the graph. Data was analyzed with Student's t test. * p<0.05. All data is mean±SEM. (C) Hpgd^+/+ mice were subjected to TBI at 8 weeks of age and then brain tissue was dissected 3 weeks later for biochemical determination of 15-PGDH enzymatic activity. […] Individual mouse data points are shown on the graph. Data was analyzed with Student's t test. ** p<0.01, **** p<0.0001. All data is mean±SEM. (D) 5×FAD mice and wild type littermates (WT) were administered either 5 mg/kg/day (+)-SW033291 twice daily (or vehicle) from 2 to 6 months of age, and then brains were dissected for biochemical assessment of 15-PGDH activity. […] Individual mouse data points are shown on the graph. Data was analyzed using two-way repeated measures ANOVA; * p<0.05, ** p<0.01, *** p<0.001. All data is mean±SEM.

15-PGDH [2] = target: T1, 15-PGDH; assay: 15-PGDH activity in whole brain of 5×FAD and WT mice; settings: 5 mg/kg/day twice daily from 2 to 6 months of age
Description: as §1

[3] = system: 5×FAD and wild type (WT) mice; assay: BrdU staining, survival of newborn hippocampal neurons; settings: 5 mg/kg/day twice daily from 2 to 6 months; for survival of newborn hippocampal neurons (BrdU): 28 days after BrdU
Description: (§2) Two month old 5×FAD and wild type (WT) littermates were treated with 5 mg/kg/day twice daily (+)-SW033291 (or vehicle) every day from 2 to 6 months. At 5 months of age, mice were injected with a single dose of 150 mg/kg bromodeoxyuridine (BrdU) to label replicating cells. At the age of 6 months (28 days after BrdU) mice were transcardially perfused and brains were dissected for examination of fixed tissue. […] Individual mouse data points are shown on the graph. Data was analyzed using two-way repeated measures ANOVA; * p<0.05, ** p<0.01, ***p<0.001, ****p<0.0001. All data is mean±SEM.

5×FAD mice [4] = assay: Amyloid plaque accumulation (Congo Red staining); settings: 5 mg/kg/day twice daily from 2 to 6 months
Description: as §2

5×FAD mice [5] = assay: Morris water maze in 5×FAD mice; settings: 5 mg/kg/day twice daily from 2 to 6 months
Description: (A) Experimental Timeline: Two month old 5×FAD and wild type (WT) littermates were treated with 5 mg/kg/day twice daily (+)-SW033291 (or vehicle) every day from 2 to 6 months. Cognitive performance was tested using Morris water maze (MWM) as shown in the timeline. (B) Animals were trained to find the hidden platform in the MWM maze for 3 consecutive days (4 trials/day), and latency to find the hidden platform was measured. […] (C) To probe for spatial memory of the hidden platform, one day after the last learning day the animals were tested in the same MWM, except the platform was removed. Memory was measured as latency to first cross the area where the platform was located and the number of times an animal crossed that area. […] Individual mouse data points are shown on the graph. Data was analyzed using two-way repeated measures ANOVA; * p<0.05, ** p<0.01, *** p<0.001. All data is mean±SEM.

5×FAD mice [6] = assay: Blood-brain barrier integrity by transmission electron microscopy
Description: BBB integrity was analyzed using transmission electron microscopy (TEM) in 6 month old 5×FAD mice. […] Mice were treated with 5 mg/kg/day (+)-SW033291 (or vehicle) every day from 2 to 6 months of age, and then sacrificed for TEM analysis. Individual mouse data points are shown on the graph. Data was analyzed using one-way ANOVA; * p<0.05, ** p<0.01, *** p<0.001. All data is mean±SEM.

[7] = wild-type mice, compared to vehicle treated wild-type mice
[8] = 6 month old 5×FAD mice, 5 mg/kg/day from 2 to 6 months of age, TEM

In the case of `CCCC[S+]([O-])c1sc2nc(-c3cccs3)cc(-c3ccccc3)c2c1N` (single isomer, unassigned; (+)) [(+)-SW033291], the “eicosanoid values in right hemisphere of the brain (trends)” value (eicosanoids; 5×FAD mice, versus vehicle control treated 5×FAD mice) was “a trend to increased 15-keto-PGE2, TN-E, PGF2a, 12,13-DiHOME, and 11,12-DHET”, the “6-keto-PGF1a, PGE2 in right hemisphere of the brain” value (eicosanoids; [7]) was “significant increase in 6-keto-PGF1a, PGE2” and the “eicosanoid values in right hemisphere of the brain (trends)” value (eicosanoids; [7]) was “a trend to increased TXB2, PGD2, 15-keto-PGE2, TN-E, PGJ2, PGF2a, LTB4, 15-HETE, 12-HETE, 8-HETE, 17-HDHA, 9,10-DiHOME, 14,15-DHET”. The “15-PGDH enzymatic activity in the forebrain” value (15-PGDH [1]) was “restored to normal; also recorded: returned to normal”, the “15-PGDH activity in the whole brain” value (15-PGDH [2]; 5×FAD mice, compared to 5×FAD vehicle, 5 mg/kg/day) was “significantly lowered 15-PGDH activity in the whole brain; also recorded: returned to normal” and the “15-PGDH activity in the whole brain” value (15-PGDH [2]; WT mice, compared to WT vehicle) was “significantly lowered 15-PGDH activity in the whole brain”. The “survival of young hippocampal neurons relative to WT-vehicle mice” value ([3]; 5×FAD mice) was “comparable extent as WT-vehicle mice”, the “survival of newborn hippocampal neurons (BrdU)” value ([3]; 5×FAD mice, 5 mg/kg/day) was “augments the survival of newborn hippocampal neurons” and the “survival of newborn hippocampal neurons (BrdU)” value ([3]; WT mice) was “augments the survival of newborn hippocampal neurons”. The “amyloid plaque accumulation (Congo Red staining)” value (5×FAD mice [4]) was “does not alter amyloid plaque accumulation; also recorded: does not affect accumulation of amyloid plaque”, the “average (escape) latency to find the hidden platform (learning)” value (5×FAD mice [5]; 5×FAD and WT mice, 3 consecutive days) was “not different between groups” and the “memory deficit / cognitive function (MWM probe)” value (5×FAD mice [5]; 5×FAD mice, 5 mg/kg/day) was “alleviated this deficit”. The “memory deficit / cognitive function (MWM probe)” value (5×FAD mice [5]; 5×FAD mice, listed as (+)-SW033921, 5 mg/kg/day) was “protects cognitive function in 5×FAD mice”, the “number of platform crosses” value (5×FAD mice [5]; MWM probe test, 5×FAD mice) was “significantly decreased in the vehicle-treated 5×FAD group compared to the other groups” and the “blood-brain barrier (BBB) protection” value (5×FAD mice [6]; 5×FAD mice) was “protects the blood-brain barrier (BBB) in 5×FAD mice”. The “disruption of astrocyte end feet that envelope the BBB” value (5×FAD mice [6]; [8]) was “prevented this disruption” and the “enlargement of the perivascular space” value (5×FAD mice [6]; [8]) was “prevented this disruption”.
